Among the data in PubChem BioAssay AID504827 (Southern Research Specialized Biocontainment Screening …, 2011) are IC50 and CPE inhibition values, retold here.

Molecules are shown by their SMILES. Activity calls are given as the source filed them. No rule for the calls is given here.

Test [1] deals with RSV-infected cells, CPE inhibition. As to the kind of experiment: RSV cytopathic effect inhibition, dose response, cell-based, synthesized compounds, set 10 (AID 504827).
Assay in test [2]: as above
To be noted: RSV-infected cells, CPE inhibition; at 200 µM (top of the series).

Turning to `Cc1ccc(NC(=O)[C@@H]2CCCN2S(=O)(=O)c2cccc3cccnc23)c(C)c1`, the IC50 in test [1] was 2.1 µM. Regarding `Cc1ccc(Cn2c(=O)n(Cc3ccc(C(=O)Nc4ccncc4)cc3)c(=O)c3ccccc32)cc1`, the IC50 in test [1] is 9.9 µM. `COc1ccc(C)c(NC(=O)[C@@H]2CCCN2S(=O)(=O)c2cccc3cccnc23)c1`: in test [1], the IC50 is 4.6 µM.

In the case of `Cc1cc(NC(=O)[C@@H]2CCCN2S(=O)(=O)c2cccc3cccnc23)n(C(C)(C)C)n1`, the CPE inhibition in test [2] was 4.92% (inactive).
